Among the data in ChEMBL document CHEMBL5653631, “A Potent and Selective ULK1 Inhibitor Suppresses Autophagy and Sensitizes Cancer Cells to Nutrient Stress” (iScience, 2018) are inhibition and fold change (FC) values, retold here.

Assay [1] has as its target Serine/threonine-protein kinase Chk2 (Homo sapiens) (UniProt O96017). Briefly: Inhibition of human recombinant CHK2 at 15 nM in presence of ATP by radiometric assay relative to control.
Assay [2] concerns the target T1, Mitogen-activated protein kinase kinase kinase 5 (Homo sapiens) (UniProt Q99683).
T1 sequence (whole entry): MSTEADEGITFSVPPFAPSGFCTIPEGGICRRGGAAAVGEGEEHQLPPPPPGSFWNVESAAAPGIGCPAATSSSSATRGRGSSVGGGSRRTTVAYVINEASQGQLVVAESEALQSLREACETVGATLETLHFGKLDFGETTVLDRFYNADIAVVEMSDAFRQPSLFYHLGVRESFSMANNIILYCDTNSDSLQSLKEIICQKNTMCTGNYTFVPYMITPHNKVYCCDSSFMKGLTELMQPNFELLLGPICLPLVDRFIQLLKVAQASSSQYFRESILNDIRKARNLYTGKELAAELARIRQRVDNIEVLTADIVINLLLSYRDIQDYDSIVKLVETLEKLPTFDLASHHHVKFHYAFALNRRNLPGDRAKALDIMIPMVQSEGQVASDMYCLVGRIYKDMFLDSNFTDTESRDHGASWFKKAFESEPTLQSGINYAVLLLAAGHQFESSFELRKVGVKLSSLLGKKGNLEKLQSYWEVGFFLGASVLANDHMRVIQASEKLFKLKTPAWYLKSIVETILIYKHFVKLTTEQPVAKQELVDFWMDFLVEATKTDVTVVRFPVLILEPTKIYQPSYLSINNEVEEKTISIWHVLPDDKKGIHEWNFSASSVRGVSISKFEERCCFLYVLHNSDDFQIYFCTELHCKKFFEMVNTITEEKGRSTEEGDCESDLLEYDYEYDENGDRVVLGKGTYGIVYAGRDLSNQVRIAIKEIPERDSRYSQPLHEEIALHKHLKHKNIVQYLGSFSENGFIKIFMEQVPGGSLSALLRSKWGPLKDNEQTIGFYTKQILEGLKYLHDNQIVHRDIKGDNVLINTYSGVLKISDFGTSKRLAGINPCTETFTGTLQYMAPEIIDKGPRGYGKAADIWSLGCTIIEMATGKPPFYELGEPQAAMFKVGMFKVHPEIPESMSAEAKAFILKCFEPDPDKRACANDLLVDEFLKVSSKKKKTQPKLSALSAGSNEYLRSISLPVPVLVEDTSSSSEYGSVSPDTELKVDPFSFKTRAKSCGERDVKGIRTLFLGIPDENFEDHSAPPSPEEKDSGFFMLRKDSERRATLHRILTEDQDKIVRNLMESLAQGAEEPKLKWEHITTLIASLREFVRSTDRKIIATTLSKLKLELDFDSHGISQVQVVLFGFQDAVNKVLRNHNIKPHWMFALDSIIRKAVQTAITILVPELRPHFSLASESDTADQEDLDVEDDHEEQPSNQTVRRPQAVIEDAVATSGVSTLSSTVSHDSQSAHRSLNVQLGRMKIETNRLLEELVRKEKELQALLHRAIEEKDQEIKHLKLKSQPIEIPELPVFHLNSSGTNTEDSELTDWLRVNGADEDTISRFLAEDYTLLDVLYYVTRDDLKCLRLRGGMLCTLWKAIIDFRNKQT
In words: Inhibition of human recombinant MAP3K5 at 40 nM in presence of ATP by radiometric assay relative to control.

In assay [3] the target is T2, SNF-related serine/threonine-protein kinase (Homo sapiens) (UniProt Q9NRH2).
T2 sequence (whole entry): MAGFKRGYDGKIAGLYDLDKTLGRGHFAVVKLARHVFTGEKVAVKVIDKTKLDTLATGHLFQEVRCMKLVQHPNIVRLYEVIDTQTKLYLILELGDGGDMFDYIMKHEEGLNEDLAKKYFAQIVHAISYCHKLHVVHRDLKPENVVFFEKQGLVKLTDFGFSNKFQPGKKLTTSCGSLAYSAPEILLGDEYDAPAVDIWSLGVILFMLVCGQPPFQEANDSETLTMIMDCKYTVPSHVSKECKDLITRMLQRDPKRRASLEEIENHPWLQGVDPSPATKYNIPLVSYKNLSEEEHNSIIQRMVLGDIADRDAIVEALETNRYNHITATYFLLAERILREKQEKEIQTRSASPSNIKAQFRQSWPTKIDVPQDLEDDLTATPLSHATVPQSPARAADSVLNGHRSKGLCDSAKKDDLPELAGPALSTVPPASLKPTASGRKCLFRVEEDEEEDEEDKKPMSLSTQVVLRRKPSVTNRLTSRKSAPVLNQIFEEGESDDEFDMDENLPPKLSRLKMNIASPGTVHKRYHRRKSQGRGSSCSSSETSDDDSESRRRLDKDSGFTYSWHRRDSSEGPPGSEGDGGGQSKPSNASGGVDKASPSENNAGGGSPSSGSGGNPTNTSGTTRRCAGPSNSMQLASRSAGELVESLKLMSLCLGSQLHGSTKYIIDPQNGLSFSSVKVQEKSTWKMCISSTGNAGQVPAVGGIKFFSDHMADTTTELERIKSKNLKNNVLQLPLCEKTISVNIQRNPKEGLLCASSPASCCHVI
Briefly: Inhibition of human recombinant SNRK at 500 nM related to control ULK1.

Serine/threonine-protein kinase Chk2 (Homo sapiens), sequence (O96017 whole entry): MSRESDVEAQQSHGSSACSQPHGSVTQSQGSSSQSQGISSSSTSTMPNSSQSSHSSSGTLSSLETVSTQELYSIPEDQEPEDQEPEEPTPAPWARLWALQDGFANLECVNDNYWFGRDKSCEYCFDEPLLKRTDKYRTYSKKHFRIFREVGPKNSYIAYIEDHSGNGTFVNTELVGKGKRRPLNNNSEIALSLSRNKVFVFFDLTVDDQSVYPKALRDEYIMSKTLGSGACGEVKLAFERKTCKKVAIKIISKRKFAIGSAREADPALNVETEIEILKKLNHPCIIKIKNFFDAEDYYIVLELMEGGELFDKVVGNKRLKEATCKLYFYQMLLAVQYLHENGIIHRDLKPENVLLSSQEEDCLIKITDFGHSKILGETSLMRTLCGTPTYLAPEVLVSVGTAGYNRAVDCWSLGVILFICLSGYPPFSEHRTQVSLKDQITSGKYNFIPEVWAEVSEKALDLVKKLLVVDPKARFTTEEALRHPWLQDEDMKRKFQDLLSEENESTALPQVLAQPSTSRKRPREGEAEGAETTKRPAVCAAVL

For `CC(C)[C@H](NC(=O)c1cc(-c2cnn3cc(-c4ccc(OCCN5CCCCC5)cc4)cnc23)cs1)C(F)(F)F`, the inhibition (commonly how much of the control response was suppressed) in assay [1] was 0%.

Regarding `O=C(N[C@@H](C1CC1)C(F)(F)F)c1cc(-c2cnn3cc(-c4ccc(F)cc4)cnc23)cs1`, the inhibition in assay [2] was 0%. Regarding `CNC(=O)c1ccccc1Oc1nc(Nc2cc(OC)c(OC)c(OC)c2)ncc1Br`, the fold change (FC) in assay [3] came out at 0.
